Assay [1] deals with GSK3α (Homo sapiens (Human), UniProt P49840). As to the kind of experiment: GSK 3α enzyme inhibition (Method 2), Z-LYTE FRET. The format is biochemical. Here is the method: (§1) The enzyme inhibitory activities of compounds disclosed herein are determined by FRET using synthetic peptides labelled with both donor and acceptor fluorophores (Z-LYTE, Invitrogen Ltd., Paisley, UK).
The inhibitory activities of compounds of the invention against the GSK 3α enzyme isoform (Invitrogen), are evaluated by determining the level of activation/phosphorylation of the target peptide. The GSK3-α protein (500 ng/mL, 2.5 μL) is mixed with the test compound (2.5 μL at either 4 μg/mL, 0.4 μg/mL, 0.04 μg/mL, or 0.004 μg/mL) for 2 hr at RT. The FRET peptide (8 μM, 2.5 μL), which is a phosphorylation target for GSK3α, and ATP (40 μM, 2.5 μL) are then added to the enzyme/compound mixture and the resulting mixture incubated for 1 hr. Development reagent (protease, 5 μL) is added for 1 hr prior to detection in a fluorescence microplate reader (Varioskan® Flash, ThermoFisher Scientific).
(§2) In all cases, the site-specific protease cleaves non-phosphorylated peptide only and eliminates the FRET signal. Phosphorylation levels of each reaction are calculated using the ratio of coumarin emission (donor) over fluorescein emission (acceptor), for which high ratios indicate high phosphorylation and low ratios indicate low phosphorylation levels. The percentage inhibition of each reaction is calculated relative to non-inhibited control and the 50% inhibitory concentration (IC50 value) is then calculated from the concentration-response curve.
This method follows the same steps as Method 1 above, but utilises a shorter period of mixing of the test compound (105 minutes instead of 2 hours) with the GSK3-α protein.

Assay [2] has as its target c-Src (Homo sapiens (Human), UniProt P12931). The assay is described as follows: c-Src enzyme inhibition, Z-LYTE FRET. The format is biochemical. Here is the method:
as §1
(§3) The inhibitory activities of compounds of the invention against c-Src and Syk enzymes (Invitrogen), are evaluated in a similar fashion to that described hereinabove. The relevant enzyme (3000 ng/mL or 2000 ng/mL respectively, 2.5 μL) is incubated with the test compound (either 4 μg/mL, 0.4 μg/mL, 0.04 μg/mL, or 0.004 μg/mL, 2.5 μL each) for 2 hr at RT. The FRET peptides (8 μM. 2.5 μL), and appropriate ATP solutions (2.5 μL, 800 μM for c-Src, and 60 μM ATP for Syk) are then added to the enzymes/compound mixtures and incubated for 1 hr. Development reagent (protease, 5 μL) is added for 1 hr prior to detection in a fluorescence microplate reader (Varioskan® Flash, ThermoFisher Scientific).
as §2

Assay [3] has as its system PBMCs. The assay is described as follows: LPS-induced TNFα/IL-8 release in PBMC cells. The format is cell-based. Particulars: Homo sapiens, LPS-stimulated PBMCs, IL-8, read-out: IC50 Values for Inhibition of Cytokine Release PBMCs IL-8. Here is the method:
Peripheral blood mononuclear cells (PBMCs) from healthy subjects are separated from whole blood using a density gradient (Lymphoprep, Axis-Shield Healthcare). The PBMCs are seeded in 96 well plates and treated with compounds at the desired concentration for 2 hours before addition of 1 ng/mL LPS (Escherichia Coli 0111:B4 from Sigma Aldrich) for 24 hours under normal tissue culture conditions (37° C., 5% CO2). The supernatant is harvested for determination of IL-8 and TNFα concentrations by sandwich ELISA (Duo-set, R&D systems) and read on the fluorescence microplate reader (Varioskan® Flash, ThermoFisher Scientific). The concentration at 50% inhibition (IC50) of IL-8 and TNFα production is calculated from the dose response curve.

Assay [4] deals with Syk (Homo sapiens (Human), UniProt P43405). As to the kind of experiment: Syk enzyme inhibition, Z-LYTE FRET. The format is biochemical. Here is the method: as §1, §3, §2
The subject of assay [5] is PBMCs. As to the kind of experiment: IL-2 and IFN gamma release in CD3/CD28 stimulated PBMC cells. The assay is classed as cell-based. Conditions: Homo sapiens. Here is the method:
PBMCs from healthy subjects are separated from whole blood using a density gradient (Lymphoprep, Axis-Shield Healthcare). Cells are added to a 96 well plate pre-coated with a mixture of CD3/CD38 monoclonal antibodies (0.3 μg/mL eBioscience and 3 μg/mL BD Pharmingen respectively). Compound at the desired concentration is then added to the wells and the plate left for 3 days under normal tissue culture conditions. Supernatants are harvested and IL-2 and IFN gamma release determined by Sandwich ELISA (Duo-set, R&D System). The IC50 is determined from the dose response curve.

The target of assay [6] is p38 MAPKα (Homo sapiens (Human), UniProt Q16539). The assay is described as follows: p38 MAPKα enzyme inhibition (Method 2), Z-LYTE FRET. The format is biochemical. Here is the method: as §1
The inhibitory activities of test compounds against the p38 MAPKα isoform (MAPK14: Invitrogen), are evaluated indirectly by determining the level of activation/phosphorylation of the down-stream molecule, MAPKAP-K2. The p38 MAPKα protein (80 ng/mL, 2.5 μL) is mixed with the test compound (2.5 μL of either 4 μg/mL, 0.4 μg/mL, 0.04 μg/mL or 0.004 μg/mL) for 2 hr at RT. […] The mixture is incubated for 1 hr at RT. Development reagent (protease, […]) is added for 1 hr prior to detection in a fluorescence microplate reader (Varioskan® Flash, ThermoFisher Scientific).
This method follows the same steps as Method 1 above, but utilises a higher concentration of the p38 MAPKα protein (2.5 μL of 200 ng/mL protein instead of 2.5 μL of 80 ng/mL protein) for mixing with the test compound.
as §2

Assay [7] concerns HT29 cells. As to the kind of experiment: IL-1-induced IL-8 release in HT29 cells. The assay is classed as cell-based. Conditions: Homo sapiens, HT-29, IL-1β-stimulated HT29 cells, read-out: IC50 Values for Inhibition of Cytokine Release HT29 cells IL-8. Here is the method: HT29 cells, a human colon adenocarcinoma cell line, are plated in a 96 well plate (24 hrs) and pre-treated with compounds at the desired concentration for 2 hours before addition of 5 ng/mL of IL-1β (Abcam) for 24 hours. Supernatants are harvested for IL-8 quantification by Sandwich ELISA (Duo-set, R&D System). The IC50 is determined from the dose response curve.

Where [8] appears, read: IFNγ, read-out: IC50 Values for Inhibition of Cytokine Release PBMCs IFNγ.
[9] abbreviates: IL-2, read-out: IC50 Values for Inhibition of Cytokine Release PBMCs IL-2.

These results are taken from US9790209B2, “Kinase inhibitors” (Respivert Limited, priority 2012, dated 2017).

p38 MAPKα, sequence (Q16539 whole entry, canonical isoform): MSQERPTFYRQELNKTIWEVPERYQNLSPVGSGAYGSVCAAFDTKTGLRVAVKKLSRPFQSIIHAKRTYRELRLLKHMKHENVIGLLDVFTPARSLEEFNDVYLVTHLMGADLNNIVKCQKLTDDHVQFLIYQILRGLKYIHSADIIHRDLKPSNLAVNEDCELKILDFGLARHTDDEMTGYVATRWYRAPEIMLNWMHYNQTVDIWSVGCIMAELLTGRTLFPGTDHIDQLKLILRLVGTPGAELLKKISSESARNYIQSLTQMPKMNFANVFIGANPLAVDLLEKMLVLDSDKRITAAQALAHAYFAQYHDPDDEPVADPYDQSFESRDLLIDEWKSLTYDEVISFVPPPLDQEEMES
c-Src, sequence (P12931 whole entry, looked up): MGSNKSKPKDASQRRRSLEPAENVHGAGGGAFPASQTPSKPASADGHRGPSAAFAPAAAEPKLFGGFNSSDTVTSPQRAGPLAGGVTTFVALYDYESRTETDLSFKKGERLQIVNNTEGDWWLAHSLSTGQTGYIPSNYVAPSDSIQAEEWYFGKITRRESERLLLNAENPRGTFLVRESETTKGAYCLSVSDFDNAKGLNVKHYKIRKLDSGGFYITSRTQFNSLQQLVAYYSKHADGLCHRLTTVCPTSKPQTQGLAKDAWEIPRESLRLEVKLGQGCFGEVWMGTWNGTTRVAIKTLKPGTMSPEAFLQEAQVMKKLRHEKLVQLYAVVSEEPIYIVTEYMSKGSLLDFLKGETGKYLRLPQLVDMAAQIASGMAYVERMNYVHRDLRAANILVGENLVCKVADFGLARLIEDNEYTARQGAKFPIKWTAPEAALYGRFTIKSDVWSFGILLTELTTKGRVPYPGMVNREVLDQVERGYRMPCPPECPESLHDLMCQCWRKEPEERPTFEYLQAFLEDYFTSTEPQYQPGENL
GSK3α, sequence (P49840 whole entry, canonical isoform): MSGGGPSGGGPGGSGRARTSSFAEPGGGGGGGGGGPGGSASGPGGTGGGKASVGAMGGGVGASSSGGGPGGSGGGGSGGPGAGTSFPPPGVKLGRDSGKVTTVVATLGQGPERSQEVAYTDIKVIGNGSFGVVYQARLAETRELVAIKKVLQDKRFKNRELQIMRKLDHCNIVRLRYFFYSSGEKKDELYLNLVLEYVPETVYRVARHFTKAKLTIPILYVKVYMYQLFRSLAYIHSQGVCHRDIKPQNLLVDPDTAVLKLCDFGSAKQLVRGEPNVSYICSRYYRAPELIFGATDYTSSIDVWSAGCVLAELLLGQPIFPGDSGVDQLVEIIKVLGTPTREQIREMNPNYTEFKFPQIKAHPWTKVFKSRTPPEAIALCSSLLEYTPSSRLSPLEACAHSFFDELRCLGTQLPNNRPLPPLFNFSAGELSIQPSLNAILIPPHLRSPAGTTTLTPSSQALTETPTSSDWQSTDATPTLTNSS

In general, IC50 refers to the midpoint of a concentration-inhibition curve. Consider `C#CC(C)(C)c1cc(NC(=O)Nc2ccc(Oc3ccnc(Nc4cc(C)c5[nH]ncc5c4)n3)c3ccccc23)n(-c2ccc(C)cc2)n1` [Example 2, 1-(4-((2-((7-Methyl-1H-indazol-5-yl)amino)pyrimidin-4-yl)oxy)naphthalen-1-yl)-3-(3-(2-methylbut-3-yn-2-yl)-1-(p-tolyl)-1H-pyrazol-5-yl)urea], for which the IC50 in assay [1] is above 10000 nM; in assay [2], 24 nM; in assay [3], 2 nM; in assay [4] it was 50 nM; in assay [5] (setting [8]), 3.6 nM; in assay [5] (setting [9]) it was 18 nM. For the same molecule, the half-inhibitory concentration (IC50) in assay [6] was determined as 380 nM; in assay [7], 3.2 nM.
On to `C#CC(C)(C)c1cc(NC(=O)Nc2ccc(Oc3ccnc(Nc4cc(OC)cc(OCCOCCOCCOC)c4)n3)c3ccccc23)n(-c2ccc(C)cc2)n1` [Example 13, 1-(4-((2-((3-Methoxy-5-(2-(2-(2-methoxyethoxy)ethoxy)ethoxy)phenyl)amino)pyrimidin-4-yl)oxy)naphthalen-1-yl)-3-(3-(2-methylbut-3-yn-2-yl)-1-(p-tolyl)-1H-pyrazol-5-yl)urea], for which the IC50 turned out to be 6400 nM in assay [1]; 16 nM in assay [2]; 1.7 nM in assay [3]; 61 nM in assay [4]; 1.3 nM in assay [5] (setting [8]); 58.8 nM in assay [5] (setting [9]). Further, the values for the half-maximal inhibitory concentration (IC50) in assay [6] and in assay [7] were 152 nM and 1.7 nM, respectively.
